Test results published in publication PMC10065791 (eLife, 2023).

Legend:
[1] = system: mixture of 26 isogenic NL4-3 protease mutant viruses; experiment: Selection for resistance in CEMx174 culture with escalating inhibitor, start mixture of 26 isogenic single mutants, Primer ID deep sequencing; format: cell-based, HIV-1
Experimental: . The selection experiments were performed under two separate starting conditions: first when the starting virus was generated from the NL4-3 clone (this clone closely approximates the clade B consensus for the protease amino acid sequence and will be referred to as ‘wild type’), then again when the starting virus was a mixture of 26 isogenic viruses each with a single mutation associated with drug resistance in the NL4-3 background. […] The initial inhibitor concentration started at low nanomolar concentrations and increased by a factor of 1.5 with each subsequent viral passage (the inhibitor concentration was increased only after the virus spread efficiently through the culture). […] For technical reasons, only five of the selections starting with the mixture of mutants reached an inhibitor concentration as high as 400 nM and are reported here (Figure 2—figure supplement 3). […]
CEMx174 cells were maintained in RPMI 1640 medium with 10% fetal calf serum and penicillin-streptomycin. […] Cell phenotypes were monitored for their ability to generate virus after transfection (293Ts), support viral replication (CEMx174), or report viral infection (TZM-bl). […]

[2] = molecular target: T1, wild-type NL4-3 protease (Human immunodeficiency virus type 1 group M subtype B, UniProt P12497, Q495K); set-up: method as in Lockbaum et al. (ACS Infect Dis. 2019 Feb 8; 5 (2): 316–325); details: previously reported, ref Lockbaum et al. (ACS Infect Dis. 2019 Feb 8, 5 (2): 316–325), read-out: Ki WT; cited from earlier work
T1 construct: the gene encoding the desired HIV-1 protease was subcloned into the heat-inducible pXC35 expression vector; made in house

[3] = molecular target: T2, I84V mutant protease (Human immunodeficiency virus type 1 group M subtype B, UniProt P12497, I572V/Q495K); set-up: method as in Lockbaum et al. (ACS Infect Dis. 2019 Feb 8; 5 (2): 316–325); details: I84V drug-resistant protease variant; previously reported; ref Lockbaum et al. (ACS Infect Dis. 2019 Feb 8; 5 (2): 316–325); cited from earlier work
T2 construct: the gene encoding the desired HIV-1 protease was subcloned into the heat-inducible pXC35 expression vector; made in house

[4] = molecular target: T3, I50V/A71V mutant protease (Human immunodeficiency virus type 1 group M subtype B, UniProt P12497, A559V/I538V/Q495K); set-up: method as in Lockbaum et al. (ACS Infect Dis. 2019 Feb 8; 5 (2): 316–325); details: I50V/A71V drug-resistant protease variant; previously reported; ref Lockbaum et al. (ACS Infect Dis. 2019 Feb 8; 5 (2): 316–325); cited from earlier work
T3 construct: the gene encoding the desired HIV-1 protease was subcloned into the heat-inducible pXC35 expression vector; made in house

SMILES	Abundance of variant at the last time point ([1]; variant 13V/16E/32I/33F/45I/46I/54L/71V/76V/82F/84V, passage 53, [PI] 5000 nM) [%]	Ki [2] [nM]	Ki [3] [nM]	Ki [4] [nM]	Abundance of variant at the last time point ([1]; variant 10F/46I/50V/63P/85V, passage 58, [PI] 400 nM) [%]
CCC(CC)CN(C[C@@H](O)[C@H](Cc1ccccc1)NC(=O)O[C@H]1CO[C@H]2OCC[C@H]21)S(=O)(=O)c1ccc(N)cc1 [UMASS-6]	62.8	< 0.005	0.0128 ± 0.0031	0.1 ± 0.0099	–
CCC(CC)CN(C[C@@H](O)[C@H](Cc1ccccc1)NC(=O)O[C@H]1CO[C@H]2OCC[C@H]21)S(=O)(=O)c1ccc(OC)cc1 [UMASS-7]	–	–	–	–	21.0
